Measurements published in article PMC12111632, “Expression, purification and preliminary pharmacological characterization of the Plasmodium falciparum membrane-bound pyrophosphatase type 1” (PLOS One, 2025).
pIC50: −log10 of the molar value. Counter-ions that a name gives are not always drawn. Like-named read-outs stand apart in the source and are kept apart here.

Key:
PfPPase-VP1 = PfPPase-VP1 (Plasmodium falciparum, UniProt Q8IKR1); test: biochemical
Procedure: The activity of PfPPase-VP1 was determined using a molybdenum blue colorimetric activity assay in 96-well plate format to measure the amount of phosphate production, as previously described for TmPPase but with modifications to pH (5.2–10) and temperature conditions (20–70°C) as described below. To determine the optimal pH for PfPPase-VP1 activity, 5 μL of 2.5 mg/mL total membrane protein was added to the reaction mixture (60 mM of various buffers (below) with pHs ranging from 5.2–10.0, 3 mM MgCl2, 100 mM KCl, and 10 mM NaCl, 100 mM NaF, 5 μM Gramicidin D), to a final volume of 40 μL. Buffers were trisodium-citrate (pH 5.2), MES (pH 6.5), Tris-HCl (pH 6.8, 7.5, 8.0, and 8.8) and glycine-NaOH (pH 10.0). A control sample was prepared by heating the membrane faction at 90 °C for 5 min to inactivate the enzyme. The reaction mixture was incubated at 30 °C for 5 min in a 96-well heating block. After incubation, 10 µl of 2 mM sodium pyrophosphate (PPi) was added, mixed, and incubated for 10 min. The reaction was stopped by adding 60 μL of premixed solution A (0.3 g ascorbic acid in 10 mL of 0.5 M cold HCl) and solution B (70 mg of ammonium heptamolybdate tetrahydrate in 1 mL of cold milli-Q water) and incubating on ice for 1 h. Finally, 90 μL sodium arsenite solution (5 g sodium arsenite, 5 g trisodium citrate dihydrate and 5 mL of iced-acetic acid in 250 mL milli-Q water) was added and incubated at RT for 30 min. Absorbance was measured at 860 nm on a MultiSkan Go UV/Vis spectrophotometer (Thermo Scientific). The specific activity of PfPPase-VP1 in the membrane was calculated using our previously published formula [23]. 60 mM Tris-Cl (pH 7.5) buffer was then selected for optimization of the reaction temperature (RT, 30 °C, 40 °C, 50 °C, 60 °C and 70 °C) by repeating the assay as described above. […] For the activity assay of purified PfPPase-VP1, 0.15 μg of the enzyme in the optimized detergent solution was mixed with 0.8 μL of 20 mg/mL liposomes (soybean lecithin) and then reaction buffer (60 mM Tris-HCl (pH 7.5), 3 mM MgCl2, 100 mM KCl, and 10 mM NaCl) was added to a total volume of 40 μL. The reaction mixture was preheated at 50 °C for 5 min before adding 10 µl of 2mM PPi and mixing. The catalytic reaction was run for 45 min at 50 °C, and the phosphate production was determined as described above. IDP, a known mPPase competitive inhibitor [35], was used as a positive control to validate the assay for inhibitor screening.
The 35 compounds used in this study were pre-dissolved in dimethyl sulfoxide (DMSO) at concentrations of 25–50 mM.
IDP was used in parallel as a positive control. Each concentration of the test compounds was tested in triplicate.

TmPPase [1] = molecular target: T1, TmPPase (Thermotoga maritima, UniProt Q9S5X0); test: TmPPase inhibition assay (96-well molybdenum blue colorimetric phosphate assay); type: biochemical; set-up: made in house
T1 sequence (Q9S5X0 1-726): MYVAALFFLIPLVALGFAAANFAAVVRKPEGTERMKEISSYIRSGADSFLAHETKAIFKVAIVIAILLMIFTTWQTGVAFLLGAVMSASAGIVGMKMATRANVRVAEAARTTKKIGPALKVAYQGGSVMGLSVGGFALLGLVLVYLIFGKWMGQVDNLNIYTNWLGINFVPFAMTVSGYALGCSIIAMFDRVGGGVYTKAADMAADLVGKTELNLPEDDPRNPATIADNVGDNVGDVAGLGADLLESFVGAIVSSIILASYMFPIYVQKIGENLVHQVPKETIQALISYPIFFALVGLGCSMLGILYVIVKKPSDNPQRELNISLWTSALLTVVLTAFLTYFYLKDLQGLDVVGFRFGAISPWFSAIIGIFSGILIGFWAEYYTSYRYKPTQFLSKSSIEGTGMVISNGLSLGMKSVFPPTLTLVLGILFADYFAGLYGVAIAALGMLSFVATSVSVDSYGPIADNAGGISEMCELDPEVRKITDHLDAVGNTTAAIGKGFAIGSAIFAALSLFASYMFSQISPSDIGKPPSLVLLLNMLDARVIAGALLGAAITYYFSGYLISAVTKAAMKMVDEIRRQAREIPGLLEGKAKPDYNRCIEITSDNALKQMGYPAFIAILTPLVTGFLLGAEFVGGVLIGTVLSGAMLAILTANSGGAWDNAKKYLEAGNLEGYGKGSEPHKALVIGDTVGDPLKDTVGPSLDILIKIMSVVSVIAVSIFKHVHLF

TmPPase [2] = molecular target: T1, TmPPase; set-up: made in house; host or cells: S. cerevisiae; settings: cited from earlier work
[3] = purified PfPPase-VP1 reconstituted in liposomes, Tris-HCl pH 7.5, 50 °C, 45 min, triplicate, interval given
[4] = interval given, read-out: IC50 (TmPPase)

Sequence of PfPPase-VP1 (Q8IKR1 entry or part of it): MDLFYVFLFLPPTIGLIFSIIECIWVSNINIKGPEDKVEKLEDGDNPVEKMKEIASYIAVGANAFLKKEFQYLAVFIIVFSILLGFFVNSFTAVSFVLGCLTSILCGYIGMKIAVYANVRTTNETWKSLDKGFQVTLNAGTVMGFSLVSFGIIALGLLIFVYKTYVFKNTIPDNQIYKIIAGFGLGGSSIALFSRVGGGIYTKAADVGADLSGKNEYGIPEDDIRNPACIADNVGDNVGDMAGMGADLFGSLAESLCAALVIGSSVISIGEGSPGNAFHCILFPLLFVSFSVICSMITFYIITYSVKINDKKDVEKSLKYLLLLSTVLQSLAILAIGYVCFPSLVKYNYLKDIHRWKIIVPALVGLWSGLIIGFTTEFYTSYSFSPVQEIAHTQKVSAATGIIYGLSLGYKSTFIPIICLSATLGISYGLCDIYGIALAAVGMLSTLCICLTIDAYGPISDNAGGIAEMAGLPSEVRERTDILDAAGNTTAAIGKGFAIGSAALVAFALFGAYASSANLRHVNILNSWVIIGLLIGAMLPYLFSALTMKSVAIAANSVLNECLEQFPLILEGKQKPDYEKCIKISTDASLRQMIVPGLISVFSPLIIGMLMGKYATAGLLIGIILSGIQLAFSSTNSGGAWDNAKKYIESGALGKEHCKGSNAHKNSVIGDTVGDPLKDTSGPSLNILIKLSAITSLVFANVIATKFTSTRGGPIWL

SMILES	IC50 (PfPPase, μM) (PfPPase-VP1; [3])	IC50 (TmPPase, μM) (TmPPase [1])	also measured
C[C@@H]1CC[C@H]2[C@@H](C)C(=O)O[C@@H]3O[C@@]4(C)CC[C@@H]1[C@]32OO4 [Compound 1, Artemisinin]	Inactive	Inactive	–
N=C(N)c1ccc(-c2ccc(-c3ccc(C(=N)N)cc3)o2)cc1 [Compound 2, Furamidine dihydrochloride]	–	Inactive	pIC50 (PfPPase-VP1): 3.72
N=C(N)c1ccc(OCCCCCOc2ccc(C(=N)N)cc2)cc1 [Compound 3, Pentamidine isethionate]	–	Inactive	–
CC1(C)N=C(N)N=C(N)N1c1ccc(Cl)cc1 [Compound 4, Cycloguanil hydrochloride]	Inactive	Inactive	–
OC(c1cc(C(F)(F)F)nc2c(C(F)(F)F)cccc12)C1CCCCN1 (stereo not drawn) [Compound 5, Mefloquine hydrochloride]	–	Inactive	–
[H]/N=C(\N/C(=N/[H])Nc1ccc(Cl)cc1)NC(C)C [Compound 6, Proguanil hydrochloride]	Inactive	Inactive	–
C[C@H]1c2cccc(O)c2C(=O)C2=C(O)[C@]3(O)C(=O)C(C(N)=O)=C(O)[C@@H](N(C)C)[C@@H]3[C@@H](O)[C@@H]21 [Compound 7, Doxycyline monohydrate]	Inactive	Inactive	–
O=C1C(O)=C([C@H]2CC[C@H](c3ccc(Cl)cc3)CC2)C(=O)c2ccccc21 [Compound 8, Atovaquone]	Inactive	Inactive	–
O=CN(O)CCCP(=O)(O)O [Compound 9, Fosmidomycin]	Inactive	Inactive	–
CC(=O)N(O)CCCP(=O)(O)O [Compound 10, FR900098 (sodium salt)]	Inactive	Inactive	–
CCN(CC)CCCC(C)Nc1ccnc2cc(Cl)ccc12 (stereo not drawn) [Compound 11, Chloroquine]	Inactive	Inactive	–
CCN(CC)CCCC(C)Nc1ccnc2cc(Cl)ccc12 (stereo not drawn) [Compound 12, Chloroquine diphospate salt]	Inactive	Inactive	–
CCN(CCO)CCCC(C)Nc1ccnc2cc(Cl)ccc12 (stereo not drawn) [Compound 13, Hydroxychloroquine sulfate]	Inactive	Inactive	–
CCN(CCO)CCCC(C)Nc1ccnc2cc(Cl)ccc12 (stereo not drawn) [Compound 14, Hydroxychloroquine]	Inactive	Inactive	–
CCOC(=O)c1cc(-c2ccc(OC)c(S(=O)(=O)N3CCCSc4ccccc43)c2)on1 [Compound 15]	Inactive	–	–
COc1cc(C2c3c(-c4cc(Cl)c(C)cc4O)n[nH]c3C(=O)N2Cc2ccccc2)ccc1O (stereo not drawn) [Compound 16]	Inactive	–	pIC50 (TmPPase [2]; [4]): 4.48
Cc1cc(C)cc(-c2cc(C(=O)Oc3ccccc3Br)no2)c1 [Compound 17]	Inactive	–	pIC50 (TmPPase [2]; [4]): 5.17
CC(C)(C)c1cc(-c2cc(C(=O)Oc3ccccc3Br)no2)cc(C(C)(C)C)c1 [Compound 18]	Inactive	–	pIC50 (TmPPase [2]; [4]): 5.00
C=Cc1cc2nc(C(=O)O)cc(-c3cc(C)cc(C)c3)n2n1 [Compound 19]	–	–	pIC50 (TmPPase [2]; read-out: IC50 against TmPPase): > 4.70
C=Cc1cc2nc(C(=O)Oc3ccccc3Br)cc(-c3cc(C)cc(C)c3)n2n1 [Compound 20]	–	–	pIC50 (TmPPase [2]; read-out: IC50 against TmPPase): > 4.70
O=P(O)(O)NP(=O)(O)O [IDP, imidodiphosphate]	–	–	pIC50 (PfPPase-VP1; purified PfPPase-VP1 reconstituted in liposomes, Tris-HCl pH 7.5, 50 °C, 45 min, triplicate, interval given, read-out: IC50 (PfPPase)): 3.76
